Laboratory results taken from publication PMC10784249 (Natural Products and Bioprospecting, 2024).

How the values were obtained:
[1] = PAMPA-BBB parallel artificial membrane permeability assay; format: in vitro ADME, porcine; details: pig, pH 7.4, PBS:EtOH (70:30) as solvent, mean ± SD of 2 independent experiments, 2 h 30 min at 25 °C, read-out: Pe
Method: Filter PDVF membrane units (diameter 30 mm, pore size 0.45 μm) from Symta were used to filter the samples. A 96-well plate UV reader (Thermoscientific, Multiskan spectrum) was used for the UV measurements. […] These solutions were filtered. […] Then the donor plate was carefully put on the acceptor plate to form a “sandwich”, which was left undisturbed for 2 h and 30 min at 25 °C. […] During this time the compounds diffused from the donor plate through the brain lipid membrane into the acceptor plate. After incubation, the donor plate was removed. UV plate reader determined the concentration of compounds and commercial drugs in the acceptor and the donor wells. […] 10 quality control compounds (previously mentioned) of known BBB permeability were included in each experiment to validate the analysis set.

[2] = test system: SH-SY5Y cells; experiment: Cell viability of SH-SY5Y cells by MTT (toxicity check); details: undifferentiated SH-SY5Y, 70 µM of OA, 24 h

| Papp at […] [1] [×10⁻⁶ cm/s] | Structure (SMILES) | decrease of cell viability [2] |
| --- | --- | --- |
| 0.6 ± 0.8 | CN1C(C(=O)Nc2ccccn2)=C(O)c2ccccc2S1(=O)=O [Piroxicam] |  |
|  | C=C1[C@@H](O)[C@@H]2O[C@]3(CC[C@H](/C=C/[C@@H](C)[C@@H]4CC(C)=C[C@@]5(O[C@H](C[C@@](C)(O)C(=O)O)CC[C@H]5O)O4)O3)CC[C@H]2O[C@@H]1[C@@H](O)C[C@H](C)[C@H]1O[C@@]2(CCCCO2)CC[C@H]1C [OA, okadaic acid] | about 43% |
| 12 ± 0.9 | CN(C)CCCN1c2ccccc2Sc2ccccc21 [Promazine] |  |
